Patent publication US6660742B2, “Compositions and methods of the use thereof achiral analogues of CC-1065 and the duocarmycins” (priority 2000, dated 2003)
“And” between values parts separate entries of the source, which are not always exact repeats. Identical values can stand only once. Like-named read-outs stand apart in the source and are kept apart here.

Columns and labels:
HOP-62 = test: NCI screen, HOP-62 (Non-Small Cell Lung Cancer)
Protocol: (§2) The compounds of this invention were also tested against the panel of 60 human cancer cell lines at the National Cancer Institute, Bethesda, Md. […] The cytrotoxicity studies were conducted using a 48 hour exposure, and measuring the optical density of sulforhodamide B-derived color.

ACHN = format: cell-based, human
NCI-H460 = test: NCI screen, NCI-H460 (Non-Small Cell Lung Cancer); format: cell-based, human
Protocol: as §2

UO-31 [1] = test: NCI screen, UO-31 (Renal Cancer)
Protocol: as §2

SNB-19 = test: NCI screen, SNB-19 (CNS Cancer)
Protocol: as §2

UACC-257 = test: NCI screen, UACC-257 (Melanoma)
Protocol: as §2

TK-10 = test: NCI screen, TK-10 (Renal Cancer)
Protocol: as §2

HCT-116 = test: NCI screen, HCT-116 (Colon Cancer)
Protocol: as §2

T-47D = test: NCI screen, T-47D (Breast Cancer); format: cell-based, human
Protocol: as §2

[2] = tested on: PC3 (human prostate cancer cells); test: SRB cytotoxicity on PC3 cells; format: cell-based
Protocol: (§3) Cells were seeded in 96-well microtiter plates at densities of 1000 cells/well. The optimal seeding density was determined to ensure exponential growth in control wells throughout the experimental period and to obtain a linear relationship between absorbance at 492 nm and cell number when analyzed by the sulforhodamine B (SRB) assay (43). 24 hours after seeding the cells were incubated for 1 hour or continuously for 3 days with the drugs (concentration range 0.01 to 500 μM). The cells were washed once and then incubated in drug free medium for 6 days. At the end of the incubation cell growth was determined by the SRB assay, which quantifies viable cells by measuring their total cellular protein content. […] Similar studies were conducted against the growth of PC3 (human prostate cancer cells) and MCF-7 (human breast cancer cells).

P815 mastocytoma cells = test: MTT cytotoxicity on P815 cells; format: cell-based, murine; conditions: 72 hr incubation
Protocol: (§1) The P815 and L1210 cell lines were obtained from American Type Tissue Culture Collection (ATCC). The cell lines were grown in Delbecco's Modified Eagle Medium (DMEM, Atlanta Biologicals) supplemented with 10% fetal bovine serum, Hepes Buffer (2 mM, Mediatech Cellgro, 25-060-Cl), L-Glutamine (2 mM, Mediatech Cellgro), and penicillin/streptomycin (50,000 units penicillin, 50,000 […], Atlanta Biologicals). Cells were maintained at 37° C. in a 5% humidified CO2 atmosphere. Cultured cells were counted using a hemocytometer and resuspended in fresh DMEM at a concentration of 8×10^5 cells/mL. This cell suspension (100 μL) was added to 96 well flat -bottom cell culture plates. At this concentration, 80,000 cells were seeded in each well. Drug solutions (dissolved in DMSO and diluted in DMEM) were added to each well (5 μL/well) resulting in final concentrations ranging from 1×10^−4 to 1×10^−12 M. Quadruplicate wells were prepared for each drug concentration. The plates were incubated for 72 hr at 37° C. in a 5% CO2 atmosphere. MTT (3-(4,5-dimethylthiazol-2-yl)-2,5-diphenyl tetrazolium bromide) was dissolved in PBS (5 mg/ml). After the indicated cell incubation period, 10 μL of this stock MTT solution was added to each well and the plates were further incubated for 4 h at 37° C. in a 5% CO2 atmosphere. […] The contents of the well were mixed thoroughly by pipetting the cell suspension up and down and the plates were allowed to sit at room temperature for 15 min in order to allow for full development of the purple color. The plates were read on a Dynatech Plate Reader, utilizing Dynex Revelation 3.2 software, with a test wavelenth of 570 nm and a reference wavelength of 630 nm.

UO-31 [3] = tested on: UO-31
Protocol: as §2

[4] = tested on: human colon adenocarcinoma cell line, LS 174T; test: SRB cytotoxicity on LS174T cells; format: cell-based
Protocol: as §3

L1210 leukemia cells = test: MTT cytotoxicity on L1210 cells; format: cell-based, murine; conditions: 72 hr incubation
Protocol: as §1

human H522 lung cancer = conditions: hollow fiber
[5] = Log10 Concentration −4.3, 48 hour exposure
[6] = Log10 Concentration −5.3, 48 hour exposure
[7] = Log10 Concentration −6.3, 48 hour exposure
[8] = Log10 Concentration −7.3, 48 hour exposure
[9] = Log10 Concentration −8.3, 48 hour exposure

Protocol for BT-549: The compounds of this invention were also tested against the panel of 60 human cancer cell lines at the National Cancer Institute, Bethesda, Md. (44). The cytrotoxicity studies were conducted using a 48 hour exposure, and measuring the optical density of sulforhodamide B-derived color.
Protocol for MALME-3M: as §2
Protocol for MCF7: as §2
Protocol for MOLT-4: as §2
Protocol for OVCAR-4: as §2
Protocol for RXF 393: as §2

In the case of `COC(=O)c1[nH]c2c(O)cc(NC(=O)c3cc4cc(OC)c(OC)c(OC)c4[nH]3)c(CCCl)c2c1C(=O)OC` [Compound 22, Dimethyl 4-(2-chloroethyl)-7-hydroxy-5-(5,6,7-trimethoxyindole-2-carboxamido)indole-2,3-dicarboxylate], the TGI (RPMI-8226) is reported as >5.00E−05 Molar, the TGI (HOP-62; 48 hour exposure) is reported as 2.51E−07 Molar and the “Percent Growth” value (HOP-62; [5]) is reported as −88%. For the same compound, the “Percent Growth” value (HOP-62; [6]) was −39%, the “Percent Growth” value (HOP-62; [7]) was −34% and the “Percent Growth” value (HOP-62; [8]) was 80%. The “Percent Growth” value (HOP-62; [9]) was 92%, the TGI (ACHN) was 5.95E−06 Molar and the TGI (NCI-H460; 48 hour exposure) was 5.64E−06 Molar. For the same compound, the “Percent Growth” value (NCI-H460; [5]) was −69%, the “Percent Growth” value (NCI-H460; [6]) was 4% and the “Percent Growth” value (NCI-H460; [7]) was 8%. The “Percent Growth” value (NCI-H460; [8]) was 73%, the “Percent Growth” value (NCI-H460; [9]) was 84% and the “Percent Growth” value (UO-31 [1]; UO-31, Log10 Concentration −4.3, 48 hour exposure) was 8%. The “Percent Growth” value (UO-31 [1]; UO-31, Log10 Concentration −5.3, 48 hour exposure) was 5%, the “Percent Growth” value (UO-31 [1]; UO-31, Log10 Concentration −6.3, 48 hour exposure) was −47% and the “Percent Growth” value (UO-31 [1]; UO-31, Log10 Concentration −7.3, 48 hour exposure) was 91%. For the same compound, the “Percent Growth” value (UO-31 [1]; UO-31, Log10 Concentration −8.3, 48 hour exposure) was 96%, the TGI (SNB-19; 48 hour exposure) was 1.64E−05 Molar and the “Percent Growth” value (SNB-19; [5]) was −7%. The “Percent Growth” value (SNB-19; [6]) was 7%, the “Percent Growth” value (SNB-19; [7]) was 21% and the “Percent Growth” value (SNB-19; [8]) was 83%. For the same compound, the “Percent Growth” value (SNB-19; [9]) was 89%, the TGI (UACC-257; 48 hour exposure) was 2.25E−05 Molar and the “Percent Growth” value (UACC-257; [5]) was −10%. The “Percent Growth” value (UACC-257; [6]) was 19%, the “Percent Growth” value (UACC-257; [7]) was 6% and the “Percent Growth” value (UACC-257; [8]) was 99%. For the same compound, the “Percent Growth” value (UACC-257; [9]) was 101%, the TGI (TK-10; TK-10, 48 hour exposure) was >5.00E−05 Molar and the “Percent Growth” value (TK-10; TK-10, Log10 Concentration −4.3, 48 hour exposure) was 8%. For the same compound, the “Percent Growth” value (TK-10; TK-10, Log10 Concentration −5.3, 48 hour exposure) was 22%, the “Percent Growth” value (TK-10; TK-10, Log10 Concentration −6.3, 48 hour exposure) was 31% and the “Percent Growth” value (TK-10; TK-10, Log10 Concentration −7.3, 48 hour exposure) was 102%. The “Percent Growth” value (TK-10; TK-10, Log10 Concentration −8.3, 48 hour exposure) was 100%, the TGI (HCT-116; HCT-116, 48 hour exposure) was 1.95E−07 Molar and the “Percent Growth” value (HCT-116; HCT-116, Log10 Concentration −4.3, 48 hour exposure) was −59%. The “Percent Growth” value (HCT-116; HCT-116, Log10 Concentration −5.3, 48 hour exposure) was −9%, the “Percent Growth” value (HCT-116; HCT-116, Log10 Concentration −6.3, 48 hour exposure) was −43% and the “Percent Growth” value (HCT-116; HCT-116, Log10 Concentration −7.3, 48 hour exposure) was 62%. The “Percent Growth” value (HCT-116; HCT-116, Log10 Concentration −8.3, 48 hour exposure) was 88%, the CC50 (T-47D; Homo sapiens, T47D, 48 h, read-out: LC50) was > 50000 nM and the GI50 (T-47D; Homo sapiens, T47D, T-47D, 48 hour exposure) was 171 nM. The TGI (T-47D; T-47D, 48 hour exposure) was >5.00E−05 Molar, the “Percent Growth” value (T-47D; T-47D, Log10 Concentration −4.3, 48 hour exposure) was 14% and the “Percent Growth” value (T-47D; T-47D, Log10 Concentration −5.3, 48 hour exposure) was 33%. The “Percent Growth” value (T-47D; T-47D, Log10 Concentration −6.3, 48 hour exposure) was 29%, the “Percent Growth” value (T-47D; T-47D, Log10 Concentration −7.3, 48 hour exposure) was 74% and the “Percent Growth” value (T-47D; T-47D, Log10 Concentration −8.3, 48 hour exposure) was 100%.
In the case of `O=C(Nc1cc(O)ccc1CCCl)c1cc2cc(NC(=O)c3cc4ccccc4o3)ccc2[nH]1` [Compound 1, 4-(2-Chloroethyl)-3-[5-(5-benzofuran-2-carboxamido)indole-2-carboxamido]phenol], the IC50 ([2]; continuous exposure, read-out: IC50 PC3 Continuous exposure) is reported as 3000 nM, the IC50 ([2]; read-out: IC50 PC3 1 hour exposure, 1 hour exposure) is reported as 82400 nM and the CC50 (RPMI-8226) is reported as > 100000 nM. For the same compound, the GI50 (RPMI-8226) was 1860 nM, the “Percent Growth” value (RPMI-8226) was −41% and the TGI (RPMI-8226) was 5.59E−06 Molar. The GI50 (HOP-62) was 453 nM, the TGI (HOP-62) was 3.07E−06 Molar and the “Percent Growth” value (HOP-62; Log10 Concentration −4.0) was −98%. For the same compound, the CC50 (BT-549) was > 100000 nM, the CC50 (MOLT-4) was > 100000 nM and the GI50 (ACHN) was 1530 nM. It also gave a TGI (ACHN) of 5.55E−06 Molar, an IC50 (P815 mastocytoma cells) of 43000 nM and a CC50 (MCF7) of 5000 nM. For the same compound, the GI50 (MALME-3M) was 1840 nM, the TGI (MALME-3M) was 3.56E−06 Molar and the “Percent Growth” value (MALME-3M; Log10 Concentration −4.0) was −95%. The “Percent Growth” value (MALME-3M; Log10 Concentration −7.0) was 102%, the “Percent Growth” value (MALME-3M; Log10 Concentration −8.0) was 102% and the “Percent Growth” value (UO-31 [1]) was 123%. For the same compound, the GI50 (UO-31 [1]; UO-31) was 3000 nM, the TGI (UO-31 [1]; UO-31) was 6.38E−06 Molar and the “Percent Growth” value (UO-31 [1]; UO-31, Log10 Concentration −4.0) was −97%. For the same compound, the “Percent Growth” value (UO-31 [1]; UO-31, Log10 Concentration −5.0) was −30%, the “Percent Growth” value (UO-31 [1]; UO-31, Log10 Concentration −7.0) was 102% and the “Percent Growth” value (UO-31 [1]; UO-31, Log10 Concentration −8.0) was 105%. The GI50 (SNB-19) was 3530 nM, the TGI (SNB-19) was 1.38E−05 Molar and the “Percent Growth” value (SNB-19; Log10 Concentration −4.0) was −75%. For the same compound, the GI50 (UACC-257) was 1880 nM, the TGI (UACC-257) was 3.40E−06 Molar and the “Percent Growth” value (UACC-257; Log10 Concentration −4.0) was −97%. The “Percent Growth” value (UACC-257; Log10 Concentration −7.0) was 104%, the “Percent Growth” value (UACC-257; Log10 Concentration −8.0) was 102% and the CC50 (UO-31 [3]) was 20000 nM. The IC50 ([4]; continuous exposure, read-out: IC50 LS174T Continuous exposure) was 2270 nM, the IC50 ([4]; read-out: IC50 LS174T 1 hour exposure, 1 hour exposure) was 18000 nM and the “Percent Growth” value (TK-10) was −31%. For the same compound, the GI50 (TK-10; TK-10) was 2450 nM, the TGI (TK-10; TK-10) was 5.85E−06 Molar and the “Percent Growth” value (TK-10; TK-10, Log10 Concentration −4.0) was −95%. The “Percent Growth” value (TK-10; TK-10, Log10 Concentration −6.0) was 101%, the “Percent Growth” value (TK-10; TK-10, Log10 Concentration −7.0) was 98% and the “Percent Growth” value (TK-10; TK-10, Log10 Concentration −8.0) was 104%. The CC50 (RXF 393) was 4770 nM, the “Percent Growth” value (OVCAR-4) was 108% and 128% and the GI50 (OVCAR-4; OVCAR-4) was 2390 nM. For the same compound, the TGI (OVCAR-4; OVCAR-4) was 5.06E−06 Molar, the “Percent Growth” value (OVCAR-4; OVCAR-4, Log10 Concentration −4.0) was −82% and the “Percent Growth” value (OVCAR-4; OVCAR-4, Log10 Concentration −5.0) was −45%. The “Percent Growth” value (OVCAR-4; OVCAR-4, Log10 Concentration −7.0) was 115%, the IC50 (L1210 leukemia cells) was 23000 nM and the “IP+SC score” value (human H522 lung cancer) was 18. For the same compound, the cell kill (human H522 lung cancer) was “significant cells kill was observed”, the IP score (human H522 lung cancer; intraperitoneal fibers) was 8 and the SC score (human H522 lung cancer; subcutaneous fibers) was 10. The “Percent Growth” value (HCT-116) was 81% and 99%, the GI50 (HCT-116; HCT-116) was 1940 nM and the TGI (HCT-116; HCT-116) was 5.73E−06 Molar. The “Percent Growth” value (HCT-116; HCT-116, Log10 Concentration −4.0) was −89%, the “Percent Growth” value (HCT-116; HCT-116, Log10 Concentration −5.0) was −26% and the “Percent Growth” value (HCT-116; HCT-116, Log10 Concentration −7.0) was 95%.
